Measurements taken from US20070027130A1, “Tricyclic 6-alkylidene-penem beta-lactamase inhibitors and beta-lactam antibiotic combination: a broad spectrum antibiotic” (priority 2005, published 2007).
≈ marks a conversion by molar mass, not a printed value. Where two headings read alike, the source gives them in different places.

How the values were obtained:
Experiment in all cases: MIC microbroth dilution
Format in all cases: cell-based
E. coli GC 2894 (AmpC) = conditions: Escherichia coli, β-lactamase class C, MHBII, 35° C. 18 hr, read-out: Minimal Inhibitory Concentration
Experimental: (§1) The in vitro activities of the antibiotics were determined by the microbroth dilution method as recommended by the National Committee for Clinical Laboratory Standards (NCCLS). (NCCLS. 2000. Methods for Dilution Antimicrobial Susceptibility Tests for Bacteria That Grow Aerobically; Approved Standards: M7-A5, vol. 19. National Committee for Clinical Laboratory Standards, Villanova, Pa.). Mueller-Hinton II broth (MHBII) (BBL Cockeysville, Md.), was used for the testing procedure. […]. The plates were incubated for 18-22 hours at 35 C. in ambient air.

[1] = test system: E. aerogenes 1697-MP GC 7845 AmpC; conditions: Klebsiella aerogenes; E. aerogenes GC 7845; β-lactamase class C; MHBII, 35° C. 18 hr; read-out: Minimal Inhibitory Concentration
Experimental: as §1

[2] = test system: E. coli GC 5901 (TEM-1 and SHV-8); conditions: Escherichia coli, β-lactamase class A, A (ESBL), MHBII, 35° C. 18 hr, read-out: Minimal Inhibitory Concentration
Experimental: as §1

E. cloacae GC 1475 (P99) = conditions: Enterobacter cloacae, β-lactamase class C, MHBII, 35° C. 18 hr, read-out: Minimal Inhibitory Concentration
Experimental: as §1

E. coli GC 2300 (TEM-28) = conditions: Escherichia coli, β-lactamase class A (ESBL), MHBII, 35° C. 18 hr, read-out: Minimal Inhibitory Concentration
Experimental: as §1

[3] = test system: S. marcescens PT 696 Inducible AmpC; conditions: Serratia marcescens, β-lactamase class C, MHBII, 35° C. 18 hr, read-out: Minimal Inhibitory Concentration
Experimental: as §1

[4] = test system: P. aeruginosa PT 9236 PTZ-R; conditions: Pseudomonas aeruginosa, PT9236PTZR; P. aeruginosa PT 9236, piperacillin-tazobactam-resistant; MHBII, 35° C. 18 hr; read-out: Minimal Inhibitory Concentration
Experimental: as §1

E. coli GC 2847 (TEM-1) = conditions: Escherichia coli, β-lactamase class A, MHBII, 35° C. 18 hr, read-out: Minimal Inhibitory Concentration
Experimental: as §1

E. coli GC 1807 OXA-7 = conditions: Escherichia coli, GC1807OXA7, β-lactamase class D, MHBII, 35° C. 18 hr, read-out: Minimal Inhibitory Concentration
Experimental: as §1

[5] = test system: E. coli ATCC 25922 (none); conditions: Escherichia coli, ATCC25922, β-lactamase class none, MHBII, 35° C. 18 hr, read-out: Minimal Inhibitory Concentration
Experimental: as §1

[6] = test system: E. coli GAR 6649 TEM, OXA, CTX (By PCR only); conditions: Escherichia coli, β-lactamase class A, A (ESBL), D, MHBII, 35° C. 18 hr, read-out: Minimal Inhibitory Concentration
Experimental: as §1

K. pn GC 1516 (TEM-26) = conditions: Klebsiella pneumoniae, β-lactamase class A (ESBL), MHBII, 35° C. 18 hr, read-out: Minimal Inhibitory Concentration
Experimental: as §1

[7] = test system: K. pn GC 1963 (TEM-10 + SHV-1 + SHV-ESBL); conditions: Klebsiella pneumoniae, β-lactamase class A, MHBII, 35° C. 18 hr, read-out: Minimal Inhibitory Concentration
Experimental: as §1

[8] = test system: E. coli GC 1499 (TEM-4 + TEM-1); conditions: Escherichia coli, β-lactamase class A, A (ESBL), MHBII, 35° C. 18 hr, read-out: Minimal Inhibitory Concentration
Experimental: as §1

[9] = test system: K. pn GC 3057 (CAZ-R; P/T-R); conditions: Klebsiella pneumoniae, β-lactamase class A, A (ESBL), MHBII, 35° C. 18 hr, read-out: Minimal Inhibitory Concentration
Experimental: as §1

[10] = test system: K. pneumoniae GC 7632 TEM-1 KPC-2, SHV-7, SHV-12; conditions: Klebsiella pneumoniae, β-lactamase class A, A (Cb'ase), A (ESBL), MHBII, 35° C. 18 hr, read-out: Minimal Inhibitory Concentration
Experimental: as §1

[11] = test system: E. coli GC 2295 TEM-1 + AmpC; conditions: Escherichia coli, β-lactamase class A, C, MHBII, 35° C. 18 hr, read-out: Minimal Inhibitory Concentration
Experimental: as §1

[12] = test system: E. cloacae GC 6991 (AmpC); conditions: Enterobacter cloacae, β-lactamase class C, MHBII, 35° C. 18 hr, read-out: Minimal Inhibitory Concentration
Experimental: as §1

[13] = test system: E. cloacae GC 4142 (AmpC); conditions: Enterobacter cloacae
Experimental: as §1

E. coli GC 2400 (TEM-43) = conditions: Escherichia coli, β-lactamase class A (ESBL), MHBII, 35° C. 18 hr, read-out: Minimal Inhibitory Concentration
Experimental: as §1

[14] = test system: P. aeruginosa PT 9025 PTZ-R; conditions: Pseudomonas aeruginosa, PT9025PTZR, 18 h, read-out: Minimal Inhibitory Concentration
Experimental: as §1

E. coli GC 2804 (imp) = conditions: Escherichia coli, 18 h, read-out: Minimal Inhibitory Concentration
Experimental: as §1

[15] = test system: E. aerogenes GC 7036 TEM-24, Amp C inducable; conditions: Klebsiella aerogenes, β-lactamase class A (ESBL), MHBII, 35° C. 18 hr, read-out: Minimal Inhibitory Concentration
Experimental: as §1

[16] = test system: K. pn GC 6488 (TEM-1 + SHV-5 + SHV-7); conditions: Klebsiella pneumoniae, β-lactamase class A, A (ESBL), MHBII, 35° C. 18 hr, read-out: Minimal Inhibitory Concentration
Experimental: as §1

CO/N=C(\C(=O)N[C@@H]1C(=O)N2C(C(=O)[O-])=C(C[N+]3(C)CCCC3)CS[C@H]12)c1csc(N)n1 [Cefepime]
MIC (E. coli GC 2894 (AmpC)): 2 µg/mL (≈ 4.16 µM)
MIC [1]: 0.5 µg/mL (≈ 1.04 µM)
MIC [2]: > 16 µg/mL
MIC (E. cloacae GC 1475 (P99)): 1 µg/mL (≈ 2.08 µM)
MIC (E. coli GC 2300 (TEM-28)): > 16 µg/mL
MIC [3]: 0.5 µg/mL (≈ 1.04 µM)
MIC [4]: > 16 µg/mL
MIC (E. coli GC 2847 (TEM-1)): 0.12 µg/mL (≈ 0.25 µM)
MIC (E. coli GC 1807 OXA-7): 0.12 µg/mL (≈ 0.25 µM)
MIC [5]: 0.03 µg/mL (≈ 0.0624 µM)
MIC [6]: > 16 µg/mL
MIC (K. pn GC 1516 (TEM-26)): > 16 µg/mL
MIC [7]: > 16 µg/mL
MIC [8]: > 16 µg/mL
MIC [9]: 16 µg/mL (≈ 33.3 µM)
MIC [10]: > 16 µg/mL
MIC [11]: 0.5 µg/mL (≈ 1.04 µM)
MIC [12]: 0.5 µg/mL (≈ 1.04 µM)
MIC ([13]; E. cloacae GC 4142, β-lactamase class C, MHBII, 35° C. 18 hr, read-out: Minimal Inhibitory Concentration): 8 µg/mL (≈ 16.6 µM)
MIC ([13]; Table 3, E. cloacae GC4142 AmpC, read-out: MIC* (minimum inhibitory concentration)): 16 µg/mL (≈ 33.3 µM)
MIC (E. coli GC 2400 (TEM-43)): > 16 µg/mL
MIC [14]: > 16 µg/mL
MIC (E. coli GC 2804 (imp)): 0.03 µg/mL (≈ 0.0624 µM)
MIC [15]: 2 µg/mL (≈ 4.16 µM)
MIC [16]: 8 µg/mL (≈ 16.6 µM)
